What was measured:
Experiment in all cases: post-emergence field trial under rows of vines, 150-200 L water/ha (Examples 6-9)
Type in all cases: in vivo
Settings in all cases: flazasulfuron 40 g/ha
Senecio vulgaris = tested on: Senecio vulgaris
Text: (§1) The expected activity of a given combination of two or three herbicides can be calculated as follows according to a calculation method by Colby (cf. COLBY, S. R.: “Calculating synergistic and antagonistic responses of herbicide combinations”, • Weeds 15, pages 20-22, 1967): • If X=% damage by herbicide (A) at an application rate of m g/ha, • Y=% damage by herbicide (B) at an application rate of n g/ha, • E=the expected damage by herbicides (A) and (B) at application rates of m and n […] and, • then for a combination:
(§2) Individual compositions comprising pelargonic acid or flazasulfuron are compared with a herbicide composition according to the invention comprising pelargonic acid and flazasulfuron.
(§3) Herbicidal activity was determined by performing a post-emergence test. […] The corresponding mixture was in the form of a spray solution. Besides, spray solutions of individual compositions comprising pelargonic acid or flazasulfuron were used.
(§4) The spray solution was applied on plants of unwanted vegetation present on fields where perennial crops were grown.
(§5) After 5 to 88 days after application of the spray solution, the degree of damage to the unwanted vegetation is rated in % of plants of unwanted vegetation that were killed. Tests were performed on test fields (field trials).

[1] = tested on: Digitaria sanguinalis and Setaria pumila
Text: as §1, §2, §3, §4, §5

Convolvulus arvensis = tested on: Convolvulus arvensis
Text: as §1, §2, §3, §4, §5

Veronica persicae = tested on: Veronica persicae
Text: as §1, §2, §3, §4, §5

[2] = 14 d, pelargonic acid 5440 g/ha
[3] = 14 d, pelargonic acid 6800 g/ha
[4] = 14 d, pelargonic acid 8160 g/ha
[5] = 31 d, pelargonic acid 5440 g/ha
[6] = 31 d, pelargonic acid 6800 g/ha
[7] = 31 d, pelargonic acid 8160 g/ha
[8] = 31 d, pelargonic acid 10880 g/ha
[9] = 58 d, pelargonic acid 5440 g/ha
[10] = 58 d, pelargonic acid 8160 g/ha
[11] = 58 d, pelargonic acid 10880 g/ha
[12] = 7 d, pelargonic acid 10880 g/ha
[13] = 14 d, pelargonic acid 10880 g/ha
[14] = 28 d, pelargonic acid 5440 g/ha
[15] = 28 d, pelargonic acid 6800 g/ha
[16] = 28 d, pelargonic acid 8160 g/ha
[17] = 28 d, pelargonic acid 10880 g/ha
[18] = 65 d, pelargonic acid 5440 g/ha
[19] = 65 d, pelargonic acid 8160 g/ha
[20] = 65 d, pelargonic acid 10880 g/ha
[21] = 65 d, pelargonic acid 6800 g/ha
[22] = 27 d, pelargonic acid 5440 g/ha
[23] = 27 d, pelargonic acid 6800 g/ha
[24] = 27 d, pelargonic acid 8160 g/ha
[25] = 27 d, pelargonic acid 10880 g/ha
[26] = 56 d, pelargonic acid 5440 g/ha
[27] = 56 d, pelargonic acid 10880 g/ha

Question: COc1cc(OC)nc(NC(=O)NS(=O)(=O)c2ncccc2C(F)(F)F)n1 [Flazasulfuron, 1-(4,6-dimethoxypyrimidin-2-yl)-3-(3-trifluoromethyl-2-pyridylsulfonyl)urea] was tested. Which herbicidal effect (Senecio vulgaris; 7 d, pelargonic acid 5440 g/ha) did it give?
Answer: 20%

Question: What about the herbicidal effect (Senecio vulgaris; 7 d, pelargonic acid 6800 g/ha) of the same molecule?
Answer: 20%

Question: What about the herbicidal effect (Senecio vulgaris; [2]) of the same molecule?
Answer: 20%

Question: What about the herbicidal effect (Senecio vulgaris; [3]) of the same molecule?
Answer: 20%

Question: And the herbicidal effect (Senecio vulgaris; [4])?
Answer: 20%

Question: What about the herbicidal effect (Senecio vulgaris; [5]) of the same molecule?
Answer: 50%

Question: And the herbicidal effect (Senecio vulgaris; [6])?
Answer: 50%

Question: What about the herbicidal effect (Senecio vulgaris; [7]) of the same molecule?
Answer: 50%

Question: What about the herbicidal effect (Senecio vulgaris; [8]) of the same molecule?
Answer: 50%

Question: And the herbicidal effect (Senecio vulgaris; [9])?
Answer: 97%

Question: And the herbicidal effect (Senecio vulgaris; [10])?
Answer: 97%

Question: What about the herbicidal effect (Senecio vulgaris; [11]) of the same molecule?
Answer: 97%

Question: And the herbicidal effect ([1]; 7 d, pelargonic acid 5440 g/ha)?
Answer: 13%

Question: What about the herbicidal effect ([1]; 7 d, pelargonic acid 6800 g/ha) of the same molecule?
Answer: 13%

Question: What about the herbicidal effect ([1]; 7 d, pelargonic acid 8160 g/ha) of the same molecule?
Answer: 13%

Question: What about the herbicidal effect [1, 12] of the same molecule?
Answer: 13%

Question: And the herbicidal effect [1, 2]?
Answer: 91%

Question: And the herbicidal effect [1, 4]?
Answer: 91%

Question: And the herbicidal effect [1, 13]?
Answer: 91%

Question: What about the herbicidal effect [1, 14] of the same molecule?
Answer: 90%

Question: And the herbicidal effect [1, 15]?
Answer: 90%

Question: What about the herbicidal effect [1, 16] of the same molecule?
Answer: 90%

Question: What about the herbicidal effect [1, 17] of the same molecule?
Answer: 90%

Question: What about the herbicidal effect [1, 18] of the same molecule?
Answer: 98%

Question: What about the herbicidal effect [1, 19] of the same molecule?
Answer: 98%

Question: And the herbicidal effect [1, 20]?
Answer: 98%

Question: And the herbicidal effect (Convolvulus arvensis; 7 d, pelargonic acid 5440 g/ha)?
Answer: 73%

Question: What about the herbicidal effect (Convolvulus arvensis; 7 d, pelargonic acid 6800 g/ha) of the same molecule?
Answer: 73%

Question: What about the herbicidal effect (Convolvulus arvensis; 7 d, pelargonic acid 8160 g/ha) of the same molecule?
Answer: 73%

Question: What about the herbicidal effect (Convolvulus arvensis; [2]) of the same molecule?
Answer: 88%

Question: And the herbicidal effect (Convolvulus arvensis; [3])?
Answer: 88%

Question: What about the herbicidal effect (Convolvulus arvensis; [4]) of the same molecule?
Answer: 88%

Question: What about the herbicidal effect (Convolvulus arvensis; [13]) of the same molecule?
Answer: 88%

Question: What about the herbicidal effect (Convolvulus arvensis; [15]) of the same molecule?
Answer: 74%

Question: And the herbicidal effect (Convolvulus arvensis; [16])?
Answer: 74%

Question: And the herbicidal effect (Convolvulus arvensis; [17])?
Answer: 74%

Question: And the herbicidal effect (Convolvulus arvensis; [18])?
Answer: 0%

Question: And the herbicidal effect (Convolvulus arvensis; [21])?
Answer: 0%

Question: And the herbicidal effect (Convolvulus arvensis; [19])?
Answer: 0%

Question: What about the herbicidal effect (Convolvulus arvensis; [20]) of the same molecule?
Answer: 0%

Question: And the herbicidal effect (Veronica persicae; 7 d, pelargonic acid 5440 g/ha)?
Answer: 43%

Question: And the herbicidal effect (Veronica persicae; 7 d, pelargonic acid 6800 g/ha)?
Answer: 43%

Question: What about the herbicidal effect (Veronica persicae; 7 d, pelargonic acid 8160 g/ha) of the same molecule?
Answer: 43%

Question: And the herbicidal effect (Veronica persicae; [12])?
Answer: 43%

Question: What about the herbicidal effect (Veronica persicae; [2]) of the same molecule?
Answer: 50%

Question: And the herbicidal effect (Veronica persicae; [3])?
Answer: 50%

Question: And the herbicidal effect (Veronica persicae; [4])?
Answer: 50%

Question: And the herbicidal effect (Veronica persicae; [13])?
Answer: 50%

Question: What about the herbicidal effect (Veronica persicae; [22]) of the same molecule?
Answer: 24%

Question: And the herbicidal effect (Veronica persicae; [23])?
Answer: 24%

Question: What about the herbicidal effect (Veronica persicae; [24]) of the same molecule?
Answer: 24%

Question: What about the herbicidal effect (Veronica persicae; [25]) of the same molecule?
Answer: 24%

Question: What about the herbicidal effect (Veronica persicae; [26]) of the same molecule?
Answer: 0%

Question: And the herbicidal effect (Veronica persicae; [27])?
Answer: 0%

Question: CCCCCCCCC(=O)O [Pelargonic acid, nonanoic acid] was tested. Which herbicidal effect (Senecio vulgaris; 7 d, pelargonic acid 5440 g/ha) did it give?
Answer: 83%

Question: And the herbicidal effect (Senecio vulgaris; 7 d, pelargonic acid 6800 g/ha)?
Answer: 89%

Question: And the herbicidal effect (Senecio vulgaris; [2])?
Answer: 80%

Question: And the herbicidal effect (Senecio vulgaris; [3])?
Answer: 89%

Question: What about the herbicidal effect (Senecio vulgaris; [4]) of the same molecule?
Answer: 98%

Question: And the herbicidal effect (Senecio vulgaris; [5])?
Answer: 60%

Question: And the herbicidal effect (Senecio vulgaris; [6])?
Answer: 60%

Question: What about the herbicidal effect (Senecio vulgaris; [7]) of the same molecule?
Answer: 91%

Question: And the herbicidal effect (Senecio vulgaris; [8])?
Answer: 90%

Question: And the herbicidal effect (Senecio vulgaris; [9])?
Answer: 0%

Question: What about the herbicidal effect (Senecio vulgaris; [10]) of the same molecule?
Answer: 10%

Question: What about the herbicidal effect (Senecio vulgaris; [11]) of the same molecule?
Answer: 15%

Question: And the herbicidal effect ([1]; 7 d, pelargonic acid 5440 g/ha)?
Answer: 97%

Question: What about the herbicidal effect ([1]; 7 d, pelargonic acid 6800 g/ha) of the same molecule?
Answer: 19%

Question: And the herbicidal effect ([1]; 7 d, pelargonic acid 8160 g/ha)?
Answer: 68%

Question: What about the herbicidal effect [1, 12] of the same molecule?
Answer: 70%

Question: And the herbicidal effect [1, 2]?
Answer: 25%

Question: And the herbicidal effect [1, 4]?
Answer: 19%

Question: What about the herbicidal effect [1, 13] of the same molecule?
Answer: 38%

Question: And the herbicidal effect [1, 14]?
Answer: 0%

Question: What about the herbicidal effect [1, 15] of the same molecule?
Answer: 0%

Question: What about the herbicidal effect [1, 16] of the same molecule?
Answer: 0%

Question: What about the herbicidal effect [1, 17] of the same molecule?
Answer: 31%

Question: And the herbicidal effect [1, 18]?
Answer: 0%

Question: What about the herbicidal effect [1, 19] of the same molecule?
Answer: 0%

Question: What about the herbicidal effect [1, 20] of the same molecule?
Answer: 0%

Question: What about the herbicidal effect (Convolvulus arvensis; 7 d, pelargonic acid 5440 g/ha) of the same molecule?
Answer: 13%

Question: What about the herbicidal effect (Convolvulus arvensis; 7 d, pelargonic acid 6800 g/ha) of the same molecule?
Answer: 0%

Question: And the herbicidal effect (Convolvulus arvensis; 7 d, pelargonic acid 8160 g/ha)?
Answer: 19%

Question: What about the herbicidal effect (Convolvulus arvensis; [2]) of the same molecule?
Answer: 13%

Question: What about the herbicidal effect (Convolvulus arvensis; [3]) of the same molecule?
Answer: 0%

Question: And the herbicidal effect (Convolvulus arvensis; [4])?
Answer: 23%

Question: And the herbicidal effect (Convolvulus arvensis; [13])?
Answer: 43%

Question: And the herbicidal effect (Convolvulus arvensis; [15])?
Answer: 0%

Question: And the herbicidal effect (Convolvulus arvensis; [16])?
Answer: 0%

Question: And the herbicidal effect (Convolvulus arvensis; [17])?
Answer: 38%

Question: What about the herbicidal effect (Convolvulus arvensis; [18]) of the same molecule?
Answer: 0%

Question: And the herbicidal effect (Convolvulus arvensis; [21])?
Answer: 0%

Question: And the herbicidal effect (Convolvulus arvensis; [19])?
Answer: 0%

Question: What about the herbicidal effect (Convolvulus arvensis; [20]) of the same molecule?
Answer: 0%

Question: What about the herbicidal effect (Veronica persicae; 7 d, pelargonic acid 5440 g/ha) of the same molecule?
Answer: 43%

Question: And the herbicidal effect (Veronica persicae; 7 d, pelargonic acid 6800 g/ha)?
Answer: 55%

Question: What about the herbicidal effect (Veronica persicae; 7 d, pelargonic acid 8160 g/ha) of the same molecule?
Answer: 50%

Question: What about the herbicidal effect (Veronica persicae; [12]) of the same molecule?
Answer: 45%

Question: And the herbicidal effect (Veronica persicae; [2])?
Answer: 10%

Question: And the herbicidal effect (Veronica persicae; [3])?
Answer: 45%

Question: What about the herbicidal effect (Veronica persicae; [4]) of the same molecule?
Answer: 30%

Question: And the herbicidal effect (Veronica persicae; [13])?
Answer: 30%

Question: And the herbicidal effect (Veronica persicae; [22])?
Answer: 0%

Question: And the herbicidal effect (Veronica persicae; [23])?
Answer: 20%

Question: And the herbicidal effect (Veronica persicae; [24])?
Answer: 0%

Question: What about the herbicidal effect (Veronica persicae; [25]) of the same molecule?
Answer: 0%

Question: What about the herbicidal effect (Veronica persicae; [26]) of the same molecule?
Answer: 0%

Question: And the herbicidal effect (Veronica persicae; [27])?
Answer: 0%

— patent publication US20240365781A1, “SYNERGISTICALLY EFFECTIVE HERBICIDE COMPOSITION COMPRISING PELARGONIC ACID AND FLAZASULFURON” (Belchim Crop Protection NV, priority 2017, published 2024)
